Experimental data from ChEMBL document CHEMBL4014340, “Identification of a Potent, Selective, and Efficacious Phosphatidylinositol 3-Kinase δ (PI3Kδ) Inhibitor for the Treatment of Immunological Disorders” (J Med Chem, 2017).

Experiments:
[1] = Half life in mouse liver microsomes aat 0.5 uM preincubated for 6 mins followed by NADPH addition measured after 10 mins by LC-MS/MS analysis; type: ADME, microsome
[2] = Metabolic stability in rat liver microsomes assessed as parent compound remaining at 0.5 uM preincubated for 6 mins followed by NADPH addition measured after 10 mins by LC-MS/MS analysis; type: ADME, microsome; conditions: read-out: Stability
[3] = Cmax in Balb/c mouse at 10 mg/kg, po; type: ADME, organism-based; design: dose 10 mg/kg, route oral; conditions: in vivo
[4] = AUC (0 to 24 hrs) in Balb/c mouse at 10 mg/kg, po; type: ADME, organism-based; design: time < 24 hr, dose 10 mg/kg, route oral; conditions: in vivo
[5] = Metabolic stability in mouse liver microsomes assessed as parent compound remaining at 0.5 uM preincubated for 6 mins followed by NADPH addition measured after 10 mins by LC-MS/MS analysis; type: ADME, microsome; conditions: read-out: Stability
[6] = Half life in rat liver microsomes aat 0.5 uM preincubated for 6 mins followed by NADPH addition measured after 10 mins by LC-MS/MS analysis; type: ADME, microsome
[7] = Metabolic stability in human liver microsomes assessed as parent compound remaining at 0.5 uM preincubated for 6 mins followed by NADPH addition measured after 10 mins by LC-MS/MS analysis; type: ADME, microsome; conditions: read-out: Stability
[8] = tested on: Oryctolagus cuniculus; experiment: Effect on QTc time interval in New Zealand White rabbit administered as 10 mins iv infusion measured for 2 mins by ECG analysis; type: ADME, organism-based; conditions: in vivo
[9] = Half life in human liver microsomes aat 0.5 uM preincubated for 6 mins followed by NADPH addition measured after 10 mins by LC-MS/MS analysis; type: ADME, microsome
[10] = Oral bioavailability in rat at 5 mg/kg; type: ADME, organism-based; conditions: in vivo
[11] = Volume of distribution at steady state in rat at 2 mg/kg, iv; type: ADME, organism-based; conditions: in vivo, read-out: Vdss
[12] = AUC in mouse at 6 mg/kg, po; type: ADME, organism-based; conditions: in vivo
[13] = Half life in mouse at 3 mg/kg, iv; type: ADME, organism-based; conditions: in vivo
[14] = tested on: Plasma; experiment: Drug uptake in New Zealand White rabbit plasma at 3 mg/kg, iv administered as 10 mins infusion measured up to 30 mins post dose; type: ADME, organism-based, Oryctolagus cuniculus; conditions: in vivo
[15] = Cmax in mouse at 6 mg/kg, po; type: ADME, organism-based; design: dose 6 mg/kg, route oral; conditions: in vivo
[16] = Half life in monkey at 1 mg/kg, iv; type: ADME, organism-based, Macaca mulatta; conditions: rhesus monkey, in vivo
[17] = Volume of distribution at steady state in dog at 1 mg/kg, iv; type: ADME, organism-based, Canis lupus familiaris; conditions: in vivo, read-out: Vdss
[18] = Volume of distribution at steady state in mouse at 3 mg/kg, iv; type: ADME, organism-based; conditions: in vivo, read-out: Vdss
[19] = Cmax in rat at 5 mg/kg, po; type: ADME, organism-based; design: dose 5 mg/kg, route oral; conditions: in vivo
[20] = tested on: Plasma; experiment: Free plasma concentration in New Zealand White rabbit at 10 mg/kg, iv administered as 10 mins infusion measured up to 30 mins post dose; type: ADME, organism-based, Oryctolagus cuniculus; conditions: in vivo
[21] = Clearance in rat at 2 mg/kg, iv; type: ADME, organism-based; conditions: in vivo
[22] = AUC in rat at 5 mg/kg, po; type: ADME, organism-based; conditions: in vivo
[23] = Cmax in dog at 2 mg/kg, po; type: ADME, organism-based, Canis lupus familiaris; design: dose 2 mg/kg, route oral; conditions: in vivo
[24] = Volume of distribution at steady state in monkey at 1 mg/kg, iv; type: ADME, organism-based, Macaca mulatta; conditions: rhesus monkey, in vivo, read-out: Vdss
[25] = tested on: Oryctolagus cuniculus; experiment: Effect on QTc time interval in New Zealand White rabbit at 20 mg/kg, iv administered as 10 mins infusion measured for 2 mins by ECG analysis; type: ADME, organism-based; conditions: in vivo
[26] = Oral bioavailability in mouse at 6 mg/kg; type: ADME, organism-based; conditions: in vivo
[27] = tested on: Plasma; experiment: Free plasma concentration in New Zealand White rabbit at 3 mg/kg, iv administered as 10 mins infusion measured up to 30 mins post dose; type: ADME, organism-based, Oryctolagus cuniculus; conditions: in vivo
[28] = tested on: Canis familiaris; experiment: Oral bioavailability in dog at 2 mg/kg; type: ADME, organism-based, Canis lupus familiaris; conditions: in vivo
[29] = tested on: Plasma; experiment: Free plasma concentration in New Zealand White rabbit at 20 mg/kg, iv administered as 10 mins infusion measured up to 30 mins post dose; type: ADME, organism-based, Oryctolagus cuniculus; conditions: in vivo
[30] = tested on: Plasma; experiment: Drug uptake in New Zealand White rabbit plasma at 10 mg/kg, iv administered as 10 mins infusion measured up to 30 mins post dose; type: ADME, organism-based, Oryctolagus cuniculus; conditions: in vivo
[31] = tested on: Oryctolagus cuniculus; experiment: Effect on QTc time interval in New Zealand White rabbit at 3 mg/kg, iv administered as 10 mins infusion measured for 2 mins by ECG analysis; type: ADME, organism-based; conditions: in vivo
[32] = Clearance in mouse at 3 mg/kg, iv; type: ADME, organism-based; conditions: in vivo
[33] = Half life in rat at 2 mg/kg, iv; type: ADME, organism-based; conditions: in vivo
[34] = Half life in dog at 1 mg/kg, iv; type: ADME, organism-based, Canis lupus familiaris; conditions: in vivo
[35] = Clearance in monkey at 1 mg/kg, iv; type: ADME, organism-based, Macaca mulatta; conditions: rhesus monkey, in vivo
[36] = tested on: Oryctolagus cuniculus; experiment: Effect on QTc time interval in New Zealand White rabbit at 10 mg/kg, iv administered as 10 mins infusion measured for 2 mins by ECG analysis; type: ADME, organism-based; conditions: in vivo
[37] = tested on: Plasma; experiment: Drug uptake in New Zealand White rabbit plasma at 20 mg/kg, iv administered as 10 mins infusion measured up to 30 mins post dose; type: ADME, organism-based, Oryctolagus cuniculus; conditions: in vivo

`CC(=O)N1CCN(c2cccc(-c3cc(-c4ccnn4CC(F)(F)F)c4c(N)ncnn34)c2)C(=O)C1(C)C` gave a half-life at 0.5 µM [1] of 0.433 h, a remaining at 10 min, 0.5 µM [2] of 70% and a Cmax [3] of 1.8 µM. It also gave an AUC(0-t) at 24 h [4] of 4.1 µM·h, a remaining at 10 min, 0.5 µM [5] of 62% and a half-life at 0.5 µM [6] of 0.517 h. The remaining at 10 min, 0.5 µM [7] was 80%, the Time [8] was over 10 ms and the half-life at 0.5 µM [9] was 0.95 h.
`CC(=O)N1CCN(c2cccc(-c3cc(C(F)(F)F)c4c(N)ncnn34)c2)C(=O)C1(C)C` gave a half-life at 0.5 µM [1] of 0.15 h, a remaining at 10 min, 0.5 µM [2] of 52% and a remaining at 10 min, 0.5 µM [5] of 30%. It also gave a half-life at 0.5 µM [6] of 0.233 h, a remaining at 10 min, 0.5 µM [7] of 83% and a half-life at 0.5 µM [9] of 0.683 h.
In the case of `CC(=O)N1CCN(c2cc(-c3cc(C(F)(F)F)c4c(N)ncnn34)ccc2C#N)C(=O)C1(C)C`, the bioavailability [10] is reported as 71%, the half-life at 0.5 µM [1] is reported as 1.2 h and the remaining at 10 min, 0.5 µM [2] is reported as 91%. It also gave a Vd [11] of 0.5 L/kg, an AUC [12] of 12 µM·h and a half-life [13] of 4.9 h. The concentration [14] was 10 µM, the Cmax [15] was 5.9 µM and the half-life [16] was 10 h. The Vd [17] was 0.61 L/kg, the Vd [18] was 2.7 L/kg and the Cmax [19] was 14 µM. For the same compound, the “Cp(f)” value [20] was 2.4 µM, the clearance [21] was 2.3 mL/min/kg and the AUC [22] was 54 µM·h. For the same compound, the Cmax [23] was 6.3 µM, the Cmax [3] was 8.2 µM and the Vd [24] was 3.6 L/kg. It also gave a Time [25] of 25 ms, an AUC(0-t) at 24 h [4] of 17 µM·h and a bioavailability [26] of 94%. For the same compound, the “Cp(f)” value [27] was 0.9 µM, the remaining at 10 min, 0.5 µM [5] was 81% and the F [28] was 75%. The half-life at 0.5 µM [6] was 1.12 h, the remaining at 10 min, 0.5 µM [7] was 94% and the “Cp(f)” value [29] was 4.8 µM. For the same compound, the concentration [30] was 27 µM, the Time [31] was 2.2 ms and the clearance [32] was 17 mL/min/kg. The half-life at 0.5 µM [9] was over 2 h, the half-life [33] was 3.5 h and the half-life [34] was 29 h. For the same compound, the clearance [35] was 4.6 mL/min/kg, the Time [36] was 13 ms and the concentration [37] was 54 µM.
Compound `CC(=O)N1CCN(c2cc(-c3cc(Cl)c4c(N)ncnn34)ccc2C)C(=O)C1(C)C` has a remaining at 10 min, 0.5 µM [2] of 60%, a remaining at 10 min, 0.5 µM [5] of 66% and a remaining at 10 min, 0.5 µM [7] of 82%.
For `CC(=O)N1C[C@H](C)N(c2cc(-c3cc(Cl)c4c(N)ncnn34)ccc2C#N)C(=O)C1(C)C`, the remaining at 10 min, 0.5 µM [2] was 94%, the remaining at 10 min, 0.5 µM [5] was 85% and the remaining at 10 min, 0.5 µM [7] was 99%.
With `CC(=O)N1CCN(c2cccc(-c3cc(-c4ccnn4C4CCOCC4)c4c(N)ncnn34)c2)C(=O)C1(C)C` the remaining at 10 min, 0.5 µM [2] was 81%, the remaining at 10 min, 0.5 µM [5] was 53% and the remaining at 10 min, 0.5 µM [7] was 77%.
`COc1ccc(-c2cc(Cl)c3c(N)ncnn23)cc1N1CCN(C(C)=O)C(C)(C)C1=O` showed a remaining at 10 min, 0.5 µM [2] of 91%, a remaining at 10 min, 0.5 µM [5] of 94% and a remaining at 10 min, 0.5 µM [7] of 94%.
`CC(=O)N1C[C@H](C)N(c2cc(-c3cc(C(F)(F)F)c4c(N)ncnn34)ccc2C#N)C(=O)C1(C)C` showed a remaining at 10 min, 0.5 µM [2] of 91%, a remaining at 10 min, 0.5 µM [5] of 100% and a remaining at 10 min, 0.5 µM [7] of 89%.
Compound `CC(=O)N1CCN(c2cc(-c3cc(C(F)(F)F)c4c(N)ncnn34)ccc2S(C)(=O)=O)C(=O)C1(C)C` has a remaining at 10 min, 0.5 µM [2] of 96%, a remaining at 10 min, 0.5 µM [5] of 97% and a remaining at 10 min, 0.5 µM [7] of 96%.
Compound `CC(=O)N1CCN(c2cc(-c3cc(Cl)c4c(N)ncnn34)ccc2C#N)C(=O)C1(C)C` has a remaining at 10 min, 0.5 µM [2] of 89%, a remaining at 10 min, 0.5 µM [5] of 89% and a remaining at 10 min, 0.5 µM [7] of 90%.
For `CC(=O)N1CCN(c2cc(-c3cc(Cl)c4c(N)ncnn34)ccc2C(F)(F)F)C(=O)C1(C)C`, the remaining at 10 min, 0.5 µM [2] was 87%, the remaining at 10 min, 0.5 µM [5] was 88% and the remaining at 10 min, 0.5 µM [7] was 95%.
